{"source": "PubChem BioAssay AID1963837", "about": "(Molecular Pharmacology Branch, DTP, NCI, 2024);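 for viability, T/C: spheroids exposed to drugs for seven days before readout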", "test_system": "843126-344-R-J1-PDC complex spheroid viability", "experiment": "Anticancer human tumor 843126-344-R-J1-PDC patient-derived melanoma cell line growth inhibition [POLQ]", "conditions": "for IC50: curve of first compound; for viability, T/C: stronger effect = lower value", "procedure,_shortened": "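Complex spheroid viability model combining PDC tumour cells with endothelial (HUVEC) and MSC stromal cells. Novobiocin, ART-558 or RP6685 were tested singly and in combination with standard and investigational anticancer drugs. Each was titrated in half-log steps from near clinical Cmax, or from 10 microM where Cmax was unknown.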", "key": {"[1]": {"conditions": "second compound 0.0316 µM, first compound 0.0316 µM"}, "[2]": {"conditions": "second compound 0.0316 µM, first compound 0.1 µM"}, "[3]": {"conditions": "second compound 0.0316 µM, first compound 0.316 µM"}, "[4]": {"conditions": "second compound 0.0316 µM, first compound 1 µM"}, "[5]": {"conditions": "second compound 0.0316 µM, first compound 3.16 µM"}, "[6]": {"conditions": "second compound 0.0316 µM, first compound 10 µM"}, "[7]": {"conditions": "second compound 0.1 µM, first compound 0.0316 µM"}, "[8]": {"conditions": "second compound 0.1 µM, first compound 0.1 µM"}, "[9]": {"conditions": "second compound 0.1 µM, first compound 0.316 µM"}, "[10]": {"conditions": "second compound 0.1 µM, first compound 1 µM"}, "[11]": {"conditions": "second compound 0.1 µM, first compound 3.16 µM"}, "[12]": {"conditions": "second compound 0.1 µM, first compound 10 µM"}, "[13]": {"conditions": "second compound 0.316 µM, first compound 0.0316 µM"}, "[14]": {"conditions": "second compound 0.316 µM, first compound 0.1 µM"}, "[15]": {"conditions": "second compound 0.316 µM, first compound 0.316 µM"}, "[16]": {"conditions": "second compound 0.316 µM, first compound 1 µM"}, "[17]": {"conditions": "second compound 0.316 µM, first compound 3.16 µM"}, "[18]": {"conditions": "second compound 0.316 µM, first compound 10 µM"}, "[19]": {"conditions": "second compound 1 µM, first compound 0.0316 µM"}, "[20]": {"conditions": "second compound 1 µM, first compound 0.1 µM"}, "[21]": {"conditions": "second compound 1 µM, first compound 0.316 µM"}, "[22]": {"conditions": "second compound 1 µM, first compound 1 µM"}, "[23]": {"conditions": "second compound 1 µM, first compound 3.16 µM"}, "[24]": {"conditions": "second compound 1 µM, first compound 10 µM"}, "[25]": {"conditions": "second compound 3.16 µM, first compound 0.0316 µM"}, "[26]": {"conditions": "second compound 3.16 µM, first compound 0.1 µM"}, "[27]": {"conditions": "second compound 3.16 µM, first compound 0.316 µM"}, "[28]": {"conditions": "second compound 3.16 µM, first compound 1 µM"}, "[29]": {"conditions": "second compound 3.16 µM, first compound 3.16 µM"}, "[30]": {"conditions": "second compound 3.16 µM, first compound 10 µM"}, "[31]": {"conditions": "second compound 10 µM, first compound 0.0316 µM"}, "[32]": {"conditions": "second compound 10 µM, first compound 0.1 µM"}, "[33]": {"conditions": "second compound 10 µM, first compound 0.316 µM"}, "[34]": {"conditions": "second compound 10 µM, first compound 1 µM"}, "[35]": {"conditions": "second compound 10 µM, first compound 3.16 µM"}, "[36]": {"conditions": "second compound 10 µM, first compound 10 µM"}}}
{"smiles": "CCc1cc2c(N3CCc4c(cc(Cn5ccnc5)cc4-c4cn(C)nc4C(F)(F)F)C3=O)cc(C)nc2c(OC)n1", "note": "+ Nc1ccc(C#CCN(C(=O)Cc2ncc(C(F)(F)F)cc2C(F)(F)F)c2ccc(F)cc2)nn1", "values": [{"measurement": "IC50", "setting": "second compound 0.0316 µM", "value": "> 10", "unit": "µM"}, {"measurement": "IC50", "setting": "second compound 0.1 µM", "value": "> 10", "unit": "µM"}, {"measurement": "IC50", "setting": "second compound 0.316 µM", "value": "> 10", "unit": "µM"}, {"measurement": "IC50", "setting": "second compound 1 µM", "value": "> 10", "unit": "µM"}, {"measurement": "IC50", "setting": "second compound 3.16 µM", "value": "> 10", "unit": "µM"}, {"measurement": "IC50", "setting": "second compound 10 µM", "value": "> 10", "unit": "µM"}, {"measurement": "viability, T/C", "setting": "[1]", "value": 96.9, "unit": "%"}, {"measurement": "viability, T/C", "setting": "[2]", "value": 95.3, "unit": "%"}, {"measurement": "viability, T/C", "setting": "[3]", "value": 82, "unit": "%"}, {"measurement": "viability, T/C", "setting": "[4]", "value": 80.7, "unit": "%"}, {"measurement": "viability, T/C", "setting": "[5]", "value": 73.2, "unit": "%"}, {"measurement": "viability, T/C", "setting": "[6]", "value": 58.8, "unit": "%"}, {"measurement": "viability, T/C", "setting": "[7]", "value": 97.5, "unit": "%"}, {"measurement": "viability, T/C", "setting": "[8]", "value": 99.5, "unit": "%"}, {"measurement": "viability, T/C", "setting": "[9]", "value": 89.1, "unit": "%"}, {"measurement": "viability, T/C", "setting": "[10]", "value": 82, "unit": "%"}, {"measurement": "viability, T/C", "setting": "[11]", "value": 79.7, "unit": "%"}, {"measurement": "viability, T/C", "setting": "[12]", "value": 58.2, "unit": "%"}, {"measurement": "viability, T/C", "setting": "[13]", "value": 87.5, "unit": "%"}, {"measurement": "viability, T/C", "setting": "[14]", "value": 97.4, "unit": "%"}, {"measurement": "viability, T/C", "setting": "[15]", "value": 77.6, "unit": "%"}, {"measurement": "viability, T/C", "setting": "[16]", "value": 84.6, "unit": "%"}, {"measurement": "viability, T/C", "setting": "[17]", "value": 76.8, "unit": "%"}, {"measurement": "viability, T/C", "setting": "[18]", "value": 66.7, "unit": "%"}, {"measurement": "viability, T/C", "setting": "[19]", "value": 104, "unit": "%"}, {"measurement": "viability, T/C", "setting": "[20]", "value": 94, "unit": "%"}, {"measurement": "viability, T/C", "setting": "[21]", "value": 80.3, "unit": "%"}, {"measurement": "viability, T/C", "setting": "[22]", "value": 81.7, "unit": "%"}, {"measurement": "viability, T/C", "setting": "[23]", "value": 68.6, "unit": "%"}, {"measurement": "viability, T/C", "setting": "[24]", "value": 58.8, "unit": "%"}, {"measurement": "viability, T/C", "setting": "[25]", "value": 90.6, "unit": "%"}, {"measurement": "viability, T/C", "setting": "[26]", "value": 85.9, "unit": "%"}, {"measurement": "viability, T/C", "setting": "[27]", "value": 93.4, "unit": "%"}, {"measurement": "viability, T/C", "setting": "[28]", "value": 74.8, "unit": "%"}, {"measurement": "viability, T/C", "setting": "[29]", "value": 66.2, "unit": "%"}, {"measurement": "viability, T/C", "setting": "[30]", "value": 64, "unit": "%"}, {"measurement": "viability, T/C", "setting": "[31]", "value": 83.3, "unit": "%"}, {"measurement": "viability, T/C", "setting": "[32]", "value": 89.6, "unit": "%"}, {"measurement": "viability, T/C", "setting": "[33]", "value": 75.8, "unit": "%"}, {"measurement": "viability, T/C", "setting": "[34]", "value": 81.5, "unit": "%"}, {"measurement": "viability, T/C", "setting": "[35]", "value": 73.3, "unit": "%"}, {"measurement": "viability, T/C", "setting": "[36]", "value": 59.4, "unit": "%"}]}
{"smiles": "C=CC(=O)N1CCN(c2nc(=O)n(-c3c(C)ccnc3C(C)C)c3nc(-c4c(O)cccc4F)c(F)cc23)C(C)C1", "note": "(centres undefined) + COC1C(OC(N)=O)C(O)C(Oc2ccc3c(O)c(NC(=O)c4ccc(O)c(CC=C(C)C)c4)c(=O)oc3c2C)OC1(C)C", "values": [{"measurement": "IC50", "setting": "second compound 0.0316 µM", "value": "> 10", "unit": "µM"}, {"measurement": "IC50", "setting": "second compound 0.1 µM", "value": "> 10", "unit": "µM"}, {"measurement": "IC50", "setting": "second compound 0.316 µM", "value": "> 10", "unit": "µM"}, {"measurement": "IC50", "setting": "second compound 1 µM", "value": "> 10", "unit": "µM"}, {"measurement": "IC50", "setting": "second compound 3.16 µM", "value": "> 10", "unit": "µM"}, {"measurement": "IC50", "setting": "second compound 10 µM", "value": "> 10", "unit": "µM"}, {"measurement": "viability, T/C", "setting": "[1]", "value": 98.3, "unit": "%"}, {"measurement": "viability, T/C", "setting": "[2]", "value": 100, "unit": "%"}, {"measurement": "viability, T/C", "setting": "[3]", "value": 97.4, "unit": "%"}, {"measurement": "viability, T/C", "setting": "[4]", "value": 89, "unit": "%"}, {"measurement": "viability, T/C", "setting": "[5]", "value": 94.9, "unit": "%"}, {"measurement": "viability, T/C", "setting": "[6]", "value": 71.4, "unit": "%"}, {"measurement": "viability, T/C", "setting": "[7]", "value": 110, "unit": "%"}, {"measurement": "viability, T/C", "setting": "[8]", "value": 108, "unit": "%"}, {"measurement": "viability, T/C", "setting": "[9]", "value": 101, "unit": "%"}, {"measurement": "viability, T/C", "setting": "[10]", "value": 113, "unit": "%"}, {"measurement": "viability, T/C", "setting": "[11]", "value": 92.8, "unit": "%"}, {"measurement": "viability, T/C", "setting": "[12]", "value": 80.5, "unit": "%"}, {"measurement": "viability, T/C", "setting": "[13]", "value": 88.7, "unit": "%"}, {"measurement": "viability, T/C", "setting": "[14]", "value": 111, "unit": "%"}, {"measurement": "viability, T/C", "setting": "[15]", "value": 103, "unit": "%"}, {"measurement": "viability, T/C", "setting": "[16]", "value": 85, "unit": "%"}, {"measurement": "viability, T/C", "setting": "[17]", "value": 101, "unit": "%"}, {"measurement": "viability, T/C", "setting": "[18]", "value": 78.6, "unit": "%"}, {"measurement": "viability, T/C", "setting": "[19]", "value": 99.8, "unit": "%"}, {"measurement": "viability, T/C", "setting": "[20]", "value": 95, "unit": "%"}, {"measurement": "viability, T/C", "setting": "[21]", "value": 104, "unit": "%"}, {"measurement": "viability, T/C", "setting": "[22]", "value": 108, "unit": "%"}, {"measurement": "viability, T/C", "setting": "[23]", "value": 114, "unit": "%"}, {"measurement": "viability, T/C", "setting": "[24]", "value": 68, "unit": "%"}, {"measurement": "viability, T/C", "setting": "[25]", "value": 107, "unit": "%"}, {"measurement": "viability, T/C", "setting": "[26]", "value": 74.1, "unit": "%"}, {"measurement": "viability, T/C", "setting": "[27]", "value": 105, "unit": "%"}, {"measurement": "viability, T/C", "setting": "[28]", "value": 113, "unit": "%"}, {"measurement": "viability, T/C", "setting": "[29]", "value": 97.7, "unit": "%"}, {"measurement": "viability, T/C", "setting": "[30]", "value": 77.7, "unit": "%"}, {"measurement": "viability, T/C", "setting": "[31]", "value": 82.7, "unit": "%"}, {"measurement": "viability, T/C", "setting": "[32]", "value": 107, "unit": "%"}, {"measurement": "viability, T/C", "setting": "[33]", "value": 92.9, "unit": "%"}, {"measurement": "viability, T/C", "setting": "[34]", "value": 98.3, "unit": "%"}, {"measurement": "viability, T/C", "setting": "[35]", "value": 104, "unit": "%"}, {"measurement": "viability, T/C", "setting": "[36]", "value": 83.5, "unit": "%"}]}
